This is an account of results in the SangsterLogP compilation.

The conditions of one series: pH 2.0.
By logD is commonly meant the decadic logarithm of the distribution of all forms, ionised or not, between an organic phase and buffer at a given pH. Higher therefore signals a more lipophilic compound. The compound `O=C1[C@@H](CSCc2ccccc2)NC(=S)N1C1CCCCC1` gave a logD of 4.58.

Still in this series, the particulars now being: pH 5.0.
The compound `C=C1NC(=S)N[C@H](c2ccc(-c3ccc(C(C)=O)cc3)o2)[C@H]1C(=O)OC(C)(C)C` displayed a logD of 4.53.
Regarding `C[C@@H]1CCC2[C@]3(C)COC(C)(C)O[C@H]3CC[C@]2(C)[C@@]12CCC1(COC(=O)C1)O2` (some centres undefined), the logD was 4.24.
Same read-out and setting: with `COc1ccc([C@@H]2[C@H](C(=O)N3CCCCCC3)c3ccccc3C(=O)N2Cc2ccc(F)cc2)cc1` the figure was 5.01.
Same read-out and setting: with `COc1ccc([C@@H]2[C@H]3C(=O)N(c4sc5c(c4C#N)CCCC5)C(=O)[C@@H]3ON2c2ccccc2C)cc1` the figure was 5.83; with `COc1cccc(C(=O)N2CCC[C@H](c3ccccc3)C2)c1`, 4.04; with `C[C@H]1C[C@H](NC(=S)NCc2csc3ccccc23)CC(C)(C)C1`, 6.21.
Same read-out and setting: with `CSc1ccc(S(=O)(=O)N(CC(=O)NC[C@@H]2CCCO2)c2ccc(C)cc2)cc1` the figure was 4.3; with `COc1cc(/C=N\n2cnc3sc4c(c3c2=O)CCCC4)ccc1OCc1ccccc1`, 5.68; with `COc1ccc([C@H]2[C@H](C(=O)Nc3ccc(F)cc3F)c3cc(OC)c(OC)cc3C(=O)N2C)cc1OC`, 3.66.
`CCCS(=O)(=O)c1c(S(=O)(=O)CCC)c2c3ccccc3ccn2c1C(=O)c1ccccc1` gave a logD of 4.48.
On the same count and under the same terms, the value for `Cc1ccc(NC(=O)[C@@H]2CCCN2C(=O)OC(C)(C)C)cc1C` was 3.9; that for `CC1(C)CC(=O)C2=C(C1)N(c1c(F)cccc1F)C(N)=C(C#N)[C@@H]2c1cccc(Cl)c1` was 5.04.
On the same count and under the same terms, with `Cc1ccc(-c2nc3n(n2)C(=O)C[C@H](c2cccc([N+](=O)[O-])c2)S3)cc1` the figure was 4.49; with `C#CCOc1ccc(C2C3=C(CC(C)(C)CC3=O)OC3=C2C(=O)CC(C)(C)C3)cc1OCC`, 4.93; with `CCOCCOC(=O)c1ccc(NC(=O)COc2ccc(C)cc2Br)cc1`, 5.36.
`Cc1ccccc1N[C@@H](c1ccccc1F)P(=O)(OC(C)C)OC(C)C` gave a logD of 5.63.
Still for that read-out and setting: with `C[C@@H](Sc1nnnn1-c1ccc(Cl)cc1)C(=O)NCC(=O)Nc1ccc(F)c(F)c1F` the figure was 4.52.

Still in this series, the particulars now being: pH 6.5.
Consider `Cc1cc2c(cc1C)N[C@@H](c1cc3c(cc1Cl)OCO3)C1=C(CC(C)(C)CC1=O)N2`, for which the log distribution coefficient (logD) came out at 4.38.
Same read-out and setting: the value for `C[C@H]1CCc2nc(NC(=O)c3ccc(F)c(F)c3)sc2C1` was 4.79; that for `CN(c1ccccc1)S(=O)(=O)c1ccc(C(=O)/N=c2/sc3cc([N+](=O)[O-])ccc3n2C)cc1` was 5.84.

The same series, now with this note: pH 7.3.
`CSc1ncc2c(n1)-c1c(SC)sc(C(=O)Nc3ccc(Cl)cc3)c1CC2`: the logD was found to be 5.87.
Same read-out and setting: the value for `CCOc1ccc(Br)cc1[C@H]1C2=C(CC(C)(C)CC2=O)Nc2ncnn21` was 3.85.

Still in this series, the particulars now being: pH 10.0.
`COc1ccc([C@@H]2C(C(=O)OCCOC(C)C)=C(C)NC3=C2C(=O)C[C@H](c2cccs2)C3)cc1OC` gave a logD of 4.45.
Still for that read-out and setting: with `Cc1ccc(Cl)c(OCc2ccc(-c3nc4c5c[nH]nc5ncn4n3)o2)c1` the figure was 4.4; with `CC(C)(C)C(=O)[C@H]1[C@H](c2ccsc2)C(C#N)(C#N)[C@H]2C=Cc3ccccc3N12`, 3.37; with `Cc1cc(C(F)(F)F)nn1[C@@H](C)c1nnc(Nc2ccn(Cc3ccccc3)n2)s1`, 5.34.

Staying with this series, now noted: pH 10.5.
As to `CCN(C(=O)[C@@H](C)OC(=O)c1cc(OC)c(OC)c(OC)c1)c1ccccc1`, the logD was found to be 3.4.
The same measure, in the same setting: with `CC[C@@H]1CCCCN1C(=O)CSc1nc(C)cc(C)n1` the figure was 3.61; with `CCOC(=O)C1CCN(C(=O)c2ccc(Cl)c(/N=C3/N[C@@H]4CS(=O)(=O)C[C@@H]4S3)c2)CC1`, 2.96; with `OC[C@@H](O)Cn1c(SCCSc2nc3ccccc3n2C[C@H](O)CO)nc2ccccc21`, 3.29.
Still for that read-out and setting: with `CC(=O)C1=C(C)NC(SCC(=O)Nc2ccccc2)=C(C#N)[C@H]1c1ccccc1Cl` the figure was 4.97.
On the same count and under the same terms, with `CN(C)/C=C/C(=O)c1ccc(C#Cc2ccccc2)cc1` the figure was 4.69; with `Cc1ccc([C@@H](O)C#CC(O)(c2ccccc2)c2ccccc2)o1`, 3.53.
